Patent US8129137B2, “Two-photon probe for real-time monitoring of intracellular free zinc ions, method for preparing the probe and method for real-time monitoring of intracellular free zinc ions using the probe” (Korea University Industrial & Academic Collaboration …, priority 2008, dated 2012)

Tested on: rat hippocampal slice
Assay: Monitoring of Zn2+ in rat hippocampal slice by TPM
Protocol: In this experimental example, TPM images were obtained from a part of acute rat hippocampal slice incubated with 10 μM AZn2 for 30 min at 37° C. Because the slice of a 14-day old rat was too big to show with one image, several TPM images were obtained in the same plane at ˜120 μm depth and combined. […]
The negligible TPEF (c) after addition of TPEN, which effectively remove the [Zn^2+]i, provides a supporting evidence for this observation.
When 50 mM KCl, a membrane depolarizer causing the release of Zn^2+, was added to the imaging solution, the TPEF intensity increased, and then decreased upon treatment with TPEN. Similar results can also be found in (d)-(f) of FIG. 15.

Question: What does the source list for `COc1cc(NC(=O)CN(C)c2ccc3cc(C(C)=O)ccc3c2)ccc1NCCN(Cc1ccccn1)Cc1ccccn1` [AZn2]?
Answer: TPEF intensity after addition of KCl (50 mM KCl, hilus of dentate gyrus): increased; TPEF after addition of TPEN (hilus of dentate gyrus, FIG. 17): clear reduction in TPEF; depth at which intracellular free Zn2+ is imaged in live tissue (rat hippocampal slice, 10 μM probe): 80-150 μm
